Data on 10 molecules can be found in ChEMBL document CHEMBL1201862, “PubChem BioAssay data set” (2004).

What all share (test): NCI tumour cell line growth inhibition, 48 h
In experiment [1] the test system is NCI-H23.
The subject of experiment [2] is MDA-MB-231.
The test system of experiment [3] is PC-3.
Experiment [4] concerns SK-MEL-5.
The subject of experiment [5] is HOP-92.
In experiment [6] the test system is A498.
Experiment [7] has as its system Hs-578T.
For experiment [8], the system named is RPMI-8226.
For experiment [9], the system named is RXF 393.
For experiment [10], the system named is SF-539.
For experiment [11], the system named is DU-145.
The subject of experiment [12] is TK-10.
In experiment [13] the test system is BT-549.
Experiment [14] has as its system ACHN.
The test system of experiment [15] is K562.
Experiment [16] relates to M14.
For experiment [17], the system named is HCT-15.
For experiment [18], the system named is HCC 2998.
In experiment [19] the test system is NCI-H460.
Experiment [20] has as its system OVCAR-3.

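Results reflect a 48-hour exposure of cells in 96-well plates to compound at five concentrations. The concentration for 50% growth inhibition is given as GI50.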 Activity calls are given as the source filed them. Cut-off read from the data, not from the text of the source: active = GI50 up to about 1.1 µM and inactive = higher. Where only a bound is given, the exact number is not on record here.

In the case of `CN1C(=O)C(CC(=O)O)NC1=S` (stereo not given), the GI50 in experiment [1], in [2], in experiment [3], in experiment [4], in experiment [5] and in experiment [6] was > 100 µM (inactive) throughout. Further, the GI50 in experiment [7], in [8], in experiment [9], in [10], in [11] and in [12] was > 100 µM (inactive) each time. Also, the GI50 in [13] was > 100 µM (inactive); in experiment [14] it was > 100 µM (inactive); in experiment [15], > 100 µM (inactive); in [16] it was > 100 µM (inactive); in experiment [17], over 100 µM; in experiment [18] it was > 100 µM (inactive). Further, the GI50 in experiment [19] and in experiment [20] was > 100 µM (inactive) in each case.
Consider `COC(=O)c1ccc(CCc2cc(O)c(Br)cc2O)cc1`, for which the GI50 was 10.4 µM (inactive) in experiment [1]; 15.1 µM (inactive) in experiment [2]; 8.02 µM (inactive) in experiment [3]; 11.5 µM (inactive) in [4]; 12.9 µM (inactive) in experiment [5]; 22.1 µM (inactive) in [6]. Besides, the GI50 in experiment [7] is 33.3 µM (inactive); in [8], 3.35 µM (inactive); in experiment [9], 16.6 µM (inactive); in [10] it was 8.3 µM (inactive); in experiment [11] it was 14.4 µM (inactive); in [12], 14.5 µM (inactive). The GI50 in experiment [13] is 4.63 µM (inactive); in [14] it was 13.2 µM (inactive); in [15], 1.74 µM (inactive); in experiment [16], 15.6 µM (inactive); in experiment [17] it was 13.4 µM; in experiment [18], 17.7 µM (inactive). Further, the figures for the GI50 in [19] and in [20] were 16.8 µM (inactive) and 8.02 µM (inactive), respectively.
In the case of `CN(Cc1cc(Br)cc(Br)c1O)Cc1c(O)ccc2ccccc12`, the GI50 in experiment [1] was 22.6 µM (inactive); in [2] it was 16.7 µM (inactive); in [3], 16.3 µM (inactive); in [4], 17.4 µM (inactive); in experiment [5] it was 19.1 µM (inactive); in experiment [6], 20 µM (inactive). For the same molecule, the GI50 was 33.1 µM (inactive) in [7]; 22.6 µM (inactive) in experiment [8]; 19.4 µM (inactive) in [9]; 16.1 µM (inactive) in experiment [10]; 21.1 µM (inactive) in experiment [11]; 17.4 µM (inactive) in [12]. The GI50 in experiment [13] is 22.4 µM (inactive); in experiment [14], 22.7 µM (inactive); in [15], 19.8 µM (inactive); in experiment [16] it was 17.2 µM (inactive); in experiment [17] it was 30.3 µM; in experiment [18], 17.1 µM (inactive). The GI50 is 19.1 µM (inactive) in experiment [19] and 15.2 µM (inactive) in experiment [20].
As for `CC(C)(C)OC(=O)N1CC(COS(C)(=O)=O)c2ccc(O)cc21` (stereo not given), the GI50 in experiment [1] was 1.14 µM (inactive); in [2], 2.77 µM (inactive); in [3], 1.73 µM (inactive); in [4] it was 1.51 µM (inactive); in experiment [5] it was 2.52 µM (inactive); in experiment [6], 2.18 µM (inactive). The GI50 in [7] was 2.46 µM (inactive); in experiment [8], 0.615 µM (active); in [9] it was 0.288 µM (active); in [10], 2.06 µM (inactive); in experiment [11], 0.507 µM (active); in [12], 3.37 µM (inactive). Besides, the GI50 is 1.52 µM (inactive) in experiment [13]; 0.684 µM (active) in experiment [14]; 2.3 µM (inactive) in experiment [15]; 1.72 µM (inactive) in [16]; 2.46 µM in [17]; 0.133 µM (active) in [18]. Also, the GI50 in [19] was 2.14 µM (inactive); in experiment [20] it was 2.05 µM (inactive).
In the case of `C=CC[C@H]1[C@H](O[Si](C)(C)C(C)(C)C)C=CC(=O)[C@@H]1CC(=O)OCC`, the GI50 in experiment [1] is 15.5 µM (inactive); in [2], 14.5 µM (inactive); in [3], 9.59 µM (inactive); in [4] it was 11 µM (inactive); in experiment [5], 11.5 µM (inactive); in [6] it was 13.7 µM (inactive). Also, the GI50 in [7] is 19 µM (inactive); in experiment [8], 2.31 µM (inactive); in experiment [9], 12.2 µM (inactive); in [10] it was 17.1 µM (inactive); in experiment [11], 16.4 µM (inactive); in [12], 14.8 µM (inactive). Further, the GI50 is 16.5 µM (inactive) in experiment [13]; 14.2 µM (inactive) in [14]; 3.13 µM (inactive) in experiment [15]; 12.7 µM (inactive) in experiment [16]; 13.5 µM in experiment [17]; 12.9 µM (inactive) in experiment [18]. The GI50 in experiment [19] was 14 µM (inactive); in experiment [20], 13.1 µM (inactive).
For the molecule `O=C1C(Cl)=C(Cl)C(Cl)(Cl)C(Cl)C1(Cl)Cl` (stereo not given), the GI50 in experiment [1] is 21.9 µM (inactive); in experiment [2], 20 µM (inactive); in experiment [3] it was 25 µM (inactive); in [4], 13.7 µM (inactive); in [5] it was 16.9 µM (inactive); in experiment [6], 15.2 µM (inactive). Further, the GI50 in experiment [7] was 21.3 µM (inactive); in [8] it was 19.6 µM (inactive); in [9] it was 20 µM (inactive); in [10] it was 17.5 µM (inactive); in experiment [11], 27.4 µM (inactive); in experiment [12], 19.5 µM (inactive). Further, the GI50 is 19.7 µM (inactive) in experiment [13]; 29.8 µM (inactive) in experiment [14]; 24.6 µM (inactive) in experiment [15]; 25.6 µM (inactive) in [16]; 29.6 µM in experiment [17]; 17.3 µM (inactive) in [18]. The results for the GI50 in [19] and in experiment [20] were 19.9 µM (inactive) and 17.7 µM (inactive), respectively.
As to `C[n+]1c(-c2ccc(/C=N\NC(=O)c3ccc(C(=O)N/N=C/c4ccc(-c5cn6ccsc6[n+]5C)cc4)cc3)cc2)cn2ccsc21`, the GI50 in experiment [1] is 17.8 µM (inactive); in [2], 21.4 µM (inactive); in [3] it was 17.4 µM (inactive); in experiment [4], 16.5 µM (inactive); in experiment [5] it was 14.8 µM (inactive); in experiment [6] it was 17.3 µM (inactive). For the same molecule, the GI50 in [7] is 19.9 µM (inactive); in experiment [8], 14.2 µM (inactive); in experiment [9], 22.8 µM (inactive); in [10] it was 23.6 µM (inactive); in experiment [11] it was 18.5 µM (inactive); in experiment [12] it was 19.9 µM (inactive). The GI50 in experiment [13] is 16.5 µM (inactive); in experiment [14], 17.9 µM (inactive); in [15], 14 µM (inactive); in experiment [16] it was 17.8 µM (inactive); in [17], 16 µM; in experiment [18], 34 µM (inactive). Further, the results for the GI50 in experiment [19] and in [20] were 19.4 µM (inactive) and 11.6 µM (inactive), respectively.
For `c1cc(CSc2ncnc3[nH]cnc23)ccn1`, the GI50 in experiment [1], in experiment [2], in experiment [3], in experiment [4], in [5] and in experiment [6] was > 100 µM (inactive) in each case. For the same molecule, the GI50 was > 100 µM (inactive) in experiment [7]; 58.1 µM (inactive) in [8]; > 100 µM (inactive) in [9]; 24.5 µM (inactive) in [10]; 65.3 µM (inactive) in experiment [11]; 59.8 µM (inactive) in [12]. Besides, the GI50 in [13] is 73.8 µM (inactive); in [14] it was > 100 µM (inactive); in [15], 27.8 µM (inactive); in experiment [16] it was 34.8 µM (inactive); in experiment [17], over 100 µM; in experiment [18], 92.5 µM (inactive). For the same molecule, the GI50 in experiment [19] was > 100 µM (inactive); in experiment [20] it was 63 µM (inactive).
As for `NCCCCN(CCCN)C(=O)OCc1ccccc1`, the GI50 in experiment [1], in experiment [2], in experiment [3], in experiment [4], in experiment [5] and in experiment [6] was > 100 µM (inactive) throughout. Also, the GI50 in experiment [7], in experiment [8], in experiment [9], in experiment [10], in experiment [11] and in [12] was > 100 µM (inactive) each time. Further, the GI50 in experiment [13] was > 100 µM (inactive); in experiment [14], > 100 µM (inactive); in experiment [15], > 100 µM (inactive); in experiment [16], > 100 µM (inactive); in [17] it was over 100 µM; in experiment [18], > 100 µM (inactive). For the same molecule, the GI50 in experiment [19] and in experiment [20] was > 100 µM (inactive) each time.
As for `Cn1c(=O)oc2cc(C(=O)CSC(=S)N3CCCCCC3)ccc21`, the GI50 in experiment [1] is > 100 µM (inactive); in experiment [2] it was > 100 µM (inactive); in [3], 99.1 µM (inactive); in experiment [4], > 100 µM (inactive); in experiment [5], > 100 µM (inactive); in experiment [6] it was 6.93 µM (inactive). Further, the GI50 in experiment [7] is 19 µM (inactive); in experiment [8] it was > 100 µM (inactive); in [9], > 100 µM (inactive); in [10], > 100 µM (inactive); in experiment [11] it was > 100 µM (inactive); in experiment [12] it was > 100 µM (inactive). For the same molecule, the GI50 in experiment [13] is > 100 µM (inactive); in experiment [14] it was > 100 µM (inactive); in [15], 57.1 µM (inactive); in experiment [16] it was > 100 µM (inactive); in [17], 81.1 µM; in experiment [18], 78.7 µM (inactive). Besides, the results for the GI50 in experiment [19] and in experiment [20] were 52.7 µM (inactive) and > 100 µM (inactive), respectively.
